{
  "source": "ChEMBL document CHEMBL3046288",
  "about": "“Effect of isoxaflutole on the growth, nodulation and nitrogen fixation of chickpea (Cicer arietinum L.)” (Crop Prot, 2009)",
  "assay_type_in_all_cases": "organism-based",
  "key": {"Cicer arietinum [1]": {"test_system": "Cicer arietinum", "experiment": "Toxicity in drug-sensitive Cicer arietinum (chickpea) assessed as effect on root dry weight per pot at 75 g/ha after 42 days (reference value: 0.26 gram)", "settings": "in vivo, 1008 h"}, "Cicer arietinum [2]": {"test_system": "Cicer arietinum", "experiment": "Toxicity in drug-tolerant Cicer arietinum (chickpea) assessed as effect on amount of fixed nitrogen level per gram of plant dry weight at 75 g/ha after 42 days (reference value: 5.5 mg)", "settings": "in vivo, 1008 h"}, "Cicer arietinum [3]": {"test_system": "Cicer arietinum", "experiment": "Toxicity in drug-sensitive Cicer arietinum (chickpea) assessed as effect on plant height at 75 g/ha after 42 days (reference value: 21.8 cm)", "settings": "in vivo, 1008 h"}, "Cicer arietinum [4]": {"test_system": "Cicer arietinum", "experiment": "Toxicity in drug-tolerant Cicer arietinum (chickpea) assessed as effect on shoot dry weight per pot at 75 g/ha after 42 days (reference value: 0.53 gram)", "settings": "in vivo, 1008 h"}, "Cicer arietinum [5]": {"test_system": "Cicer arietinum", "experiment": "Toxicity in drug-sensitive Cicer arietinum (chickpea) assessed as effect on amount of fixed nitrogen level per gram of plant dry weight at 75 g/ha after 42 days (reference value: 5.5 mg)", "settings": "in vivo, 1008 h"}, "Cicer arietinum [6]": {"test_system": "Cicer arietinum", "experiment": "Toxicity in drug-tolerant Cicer arietinum (chickpea) assessed as effect on average nodule weight at 75 g/ha after 42 days (reference value: 1.21 mg)", "settings": "in vivo, 1008 h"}, "Cicer arietinum [7]": {"test_system": "Cicer arietinum", "experiment": "Toxicity in drug-tolerant Cicer arietinum (chickpea) assessed as effect on amount of fixed nitrogen level per gram of plant dry weight at 75 g/ha after 42 days in presence of 1.5 mM of nitrate (reference value: 5.9 mg)", "settings": "in vivo, 1008 h"}, "Cicer arietinum [8]": {"test_system": "Cicer arietinum", "experiment": "Toxicity in drug-sensitive Cicer arietinum (chickpea) assessed as effect on average nodule weight at 75 g/ha after 42 days (reference value: 1.31 mg)", "settings": "in vivo, 1008 h"}, "Cicer arietinum [9]": {"test_system": "Cicer arietinum", "experiment": "Toxicity in drug-tolerant Cicer arietinum (chickpea) assessed as effect on root dry weight per pot at 75 g/ha after 42 days (reference value: 0.30 gram)", "settings": "in vivo, 1008 h"}, "Cicer arietinum [10]": {"test_system": "Cicer arietinum", "experiment": "Toxicity in drug-sensitive Cicer arietinum (chickpea) assessed as effect on root nitrogen level per gram of root dry weight at 75 g/ha after 42 days (reference value: 13.4 mg)", "settings": "in vivo, 1008 h"}, "Cicer arietinum [11]": {"test_system": "Cicer arietinum", "experiment": "Toxicity in drug-sensitive Cicer arietinum (chickpea) assessed as effect on shoot dry weight per pot at 75 g/ha after 42 days in presence of 1.5 mM of nitrate (reference value: 0.38 gram)", "settings": "in vivo, 1008 h"}, "Cicer arietinum [12]": {"test_system": "Cicer arietinum", "experiment": "Toxicity in drug-sensitive Cicer arietinum (chickpea) assessed as effect on amount of fixed nitrogen level per gram of plant dry weight at 75 g/ha after 42 days in presence of 1.5 mM of nitrate (reference value: 6 mg)", "settings": "in vivo, 1008 h"}, "Cicer arietinum [13]": {"test_system": "Cicer arietinum", "experiment": "Toxicity in drug-tolerant Cicer arietinum (chickpea) assessed as effect on root nitrogen level per gram of root dry weight at 75 g/ha after 42 days (reference value: 12.1 mg)", "settings": "in vivo, other, 1008 h"}, "Cicer arietinum [14]": {"test_system": "Cicer arietinum", "experiment": "Toxicity in drug-tolerant Cicer arietinum (chickpea) assessed as effect on shoot dry weight per pot at 75 g/ha after 42 days in presence of 1.5 mM of nitrate (reference value: 0.50 gram)", "settings": "in vivo, 1008 h"}, "Cicer arietinum [15]": {"test_system": "Cicer arietinum", "experiment": "Toxicity in drug-sensitive Cicer arietinum (chickpea) assessed as effect on nodule dry weight per gram of root dry weight at 75 g/ha after 42 days (reference value: 258 mg)", "settings": "in vivo, 1008 h"}, "Cicer arietinum [16]": {"test_system": "Cicer arietinum", "experiment": "Toxicity in drug-tolerant Cicer arietinum (chickpea) assessed as effect on plant height at 75 g/ha after 42 days (reference value: 21.4 cm)", "settings": "in vivo, 1008 h"}, "Cicer arietinum [17]": {"test_system": "Cicer arietinum", "experiment": "Toxicity in drug-tolerant Cicer arietinum (chickpea) assessed as effect on total nitrogen level per gram of plant dry weight at 75 g/ha after 42 days (reference value: 31.1 mg)", "settings": "in vivo, 1008 h"}, "Cicer arietinum [18]": {"test_system": "Cicer arietinum", "experiment": "Toxicity in drug-tolerant Cicer arietinum (chickpea) assessed as effect on nodule dry weight per gram of root dry weight at 75 g/ha after 42 days (reference value: 209.7 mg)", "settings": "in vivo, other, 1008 h"}, "Cicer arietinum [19]": {"test_system": "Cicer arietinum", "experiment": "Toxicity in drug-sensitive Cicer arietinum (chickpea) assessed as effect on total nitrogen level per gram of plant dry weight at 75 g/ha after 42 days (reference value: 34.5 mg)", "settings": "in vivo, 1008 h"}, "Cicer arietinum [20]": {"test_system": "Cicer arietinum", "experiment": "Toxicity in drug-sensitive Cicer arietinum (chickpea) assessed as effect on shoot dry weight per pot at 75 g/ha after 42 days (reference value: 0.50 gram)", "settings": "in vivo, 1008 h"}},
  "data": [
    {"compound": "CS(=O)(=O)c1cc(C(F)(F)F)ccc1C(=O)c1cnoc1C1CC1", "note": "[ISOXAFLUTOLE]", "values": [
      {"measurement": "Activity", "setting": "Cicer arietinum [1]", "result": 0.13, "unit": "g"},
      {"measurement": "Activity", "setting": "Cicer arietinum [2]", "result": 3.7, "unit": "mg"},
      {"measurement": "Activity", "setting": "Cicer arietinum [3]", "result": 15.5, "unit": "cm"},
      {"measurement": "Activity", "setting": "Cicer arietinum [4]", "result": 0.51, "unit": "g"},
      {"measurement": "Activity", "setting": "Cicer arietinum [5]", "result": 3.5, "unit": "mg"},
      {"measurement": "Activity", "setting": "Cicer arietinum [6]", "result": 1.16, "unit": "mg"},
      {"measurement": "Activity", "setting": "Cicer arietinum [7]", "result": 3.1, "unit": "mg"},
      {"measurement": "Activity", "setting": "Cicer arietinum [8]", "result": 0.76, "unit": "mg"},
      {"measurement": "Activity", "setting": "Cicer arietinum [9]", "result": 0.27, "unit": "g"},
      {"measurement": "Activity", "setting": "Cicer arietinum [10]", "result": 8.1, "unit": "mg"},
      {"measurement": "Activity", "setting": "Cicer arietinum [11]", "result": 0.51, "unit": "g"},
      {"measurement": "Activity", "setting": "Cicer arietinum [12]", "result": 4.6, "unit": "mg"},
      {"measurement": "Activity", "setting": "Cicer arietinum [13]", "result": 11.1, "unit": "mg"},
      {"measurement": "Activity", "setting": "Cicer arietinum [14]", "result": 0.54, "unit": "g"},
      {"measurement": "Activity", "setting": "Cicer arietinum [15]", "result": 123.7, "unit": "mg"},
      {"measurement": "Activity", "setting": "Cicer arietinum [16]", "result": 20.6, "unit": "cm"},
      {"measurement": "Activity", "setting": "Cicer arietinum [17]", "result": 30.1, "unit": "mg"},
      {"measurement": "Activity", "setting": "Cicer arietinum [18]", "result": 174.9, "unit": "mg"},
      {"measurement": "Activity", "setting": "Cicer arietinum [19]", "result": 27.4, "unit": "mg"},
      {"measurement": "Activity", "setting": "Cicer arietinum [20]", "result": 0.39, "unit": "g"}
    ]}
  ]
}
